# What was measured:
# cyclooxygenase-2 (COX-2) = molecular target: T1, cyclooxygenase-2 (COX-2) (Homo sapiens, UniProt P35354); assay: colorimetric COX inhibitor screening assay (Cayman […]), human recombinant COX-2
# T1 construct: gene PTGS2
# T1 sequence (P35354 18-604): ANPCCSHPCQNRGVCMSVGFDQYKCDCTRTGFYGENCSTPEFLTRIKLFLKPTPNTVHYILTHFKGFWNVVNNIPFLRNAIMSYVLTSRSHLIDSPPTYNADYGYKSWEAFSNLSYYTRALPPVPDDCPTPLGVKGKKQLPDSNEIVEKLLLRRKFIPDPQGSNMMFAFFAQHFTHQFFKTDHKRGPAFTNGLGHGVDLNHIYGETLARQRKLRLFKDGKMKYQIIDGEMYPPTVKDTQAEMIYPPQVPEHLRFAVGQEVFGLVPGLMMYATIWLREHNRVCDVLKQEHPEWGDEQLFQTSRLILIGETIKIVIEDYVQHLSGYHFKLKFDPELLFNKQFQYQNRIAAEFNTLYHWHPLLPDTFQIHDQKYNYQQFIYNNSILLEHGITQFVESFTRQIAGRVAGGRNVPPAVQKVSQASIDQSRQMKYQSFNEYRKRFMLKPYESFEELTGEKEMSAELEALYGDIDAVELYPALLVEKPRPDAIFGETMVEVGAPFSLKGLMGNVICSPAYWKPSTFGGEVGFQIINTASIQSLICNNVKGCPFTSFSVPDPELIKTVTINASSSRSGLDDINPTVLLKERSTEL
# 5-lipoxygenase (5-LOX) = molecular target: T2, 5-lipoxygenase (5-LOX) (Homo sapiens, UniProt P09917); assay: UV ([…] nm) linoleic acid to HPOD assay, human recombinant 5-LOX; format: biochemical
# T2 construct: gene ALOX5
# T2 sequence (P09917 1-674): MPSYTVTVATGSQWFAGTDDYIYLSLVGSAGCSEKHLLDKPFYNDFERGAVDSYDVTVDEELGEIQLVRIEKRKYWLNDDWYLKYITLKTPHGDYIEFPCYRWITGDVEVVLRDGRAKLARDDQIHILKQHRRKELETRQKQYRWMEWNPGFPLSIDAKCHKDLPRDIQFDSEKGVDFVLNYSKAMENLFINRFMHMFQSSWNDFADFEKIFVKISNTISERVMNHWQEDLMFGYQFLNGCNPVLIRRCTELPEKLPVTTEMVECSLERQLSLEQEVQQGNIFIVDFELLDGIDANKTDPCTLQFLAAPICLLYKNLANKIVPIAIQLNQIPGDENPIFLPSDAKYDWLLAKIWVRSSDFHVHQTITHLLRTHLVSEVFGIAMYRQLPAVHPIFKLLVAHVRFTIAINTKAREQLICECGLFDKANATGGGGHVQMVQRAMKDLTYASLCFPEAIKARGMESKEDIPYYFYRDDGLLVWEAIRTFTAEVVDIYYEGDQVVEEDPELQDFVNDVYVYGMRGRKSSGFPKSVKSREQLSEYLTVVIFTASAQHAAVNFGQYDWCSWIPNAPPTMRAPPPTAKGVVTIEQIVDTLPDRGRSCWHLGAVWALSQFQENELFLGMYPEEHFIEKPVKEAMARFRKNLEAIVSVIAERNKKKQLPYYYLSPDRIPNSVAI
smiles,measurement,setting,value
"O=C1CC(c2ccccc2)Oc2ccc(O)cc21 (centres unmarked) [6-HF, 6-Hydroxyflavanone]",IC50,cyclooxygenase-2 (COX-2),21.9 µM
same,IC50,5-lipoxygenase (5-LOX),36 µM
